Data: ChEMBL document CHEMBL1141504, “An efficient route into synthetically challenging bridged achiral 1,2,4,5-tetraoxanes with antimalarial activity” (Bioorg Med Chem Lett, 2008)

What was measured:
Plasmodium falciparum = test: Antimalarial activity against Plasmodium falciparum 3D7; format: functional, organism-based
[1] = Partition coefficient, log P of the compound; format: physicochemical; conditions: octanol/water

Compound	IC50 (Plasmodium falciparum)	logP [1]
C=C1COOC2(CCC(Cc3ccc(F)cc3)CC2)OOC1	43.4 nM	4.2
N#Cc1ccc(CC2CCC3(CC2)OOCCCOO3)cc1	99.7 nM	3.46
c1ccc(CC2CCC3(CC2)OOCCCOO3)cc1	51.9 nM	3.93
COC(=O)c1ccc(CC2CCC3(CC2)OOCCCOO3)cc1	93.5 nM	3.75
FC(F)(F)c1ccc(CC2CCC3(CC2)OOCCCOO3)cc1	52.4 nM	4.79
C=C1COOC2(CCC(Cc3ccc(C(F)(F)F)cc3)CC2)OOC1	42.8 nM	4.95
CO[C@H]1O[C@@H]2O[C@@]3(C)CC[C@H]4[C@H](C)CC[C@@H]([C@H]1C)[C@@]24OO3 [ARTEMETHER]	3.2 nM	–
CS(=O)(=O)c1ccc(CC2CCC3(CC2)OOCCCOO3)cc1	–	2.65
O=C(CC1CCC2(CC1)OOCCCOO2)N1CCOCC1	689 nM	1.16
C=C1COOC2(CCC(Cc3ccc(C(=O)OC)cc3)CC2)OOC1	116 nM	4.05
C[C@@H]1CC[C@H]2[C@@H](C)C(=O)O[C@@H]3O[C@@]4(C)CC[C@@H]1[C@]32OO4 [ARTEMISININ]	9.2 nM	–
CCOC(=O)CC1CCC2(CC1)OOCCCOO2	118 nM	2.2
Fc1ccc(CC2CCC3(CC2)OOCCCOO3)cc1	68.2 nM	4.01
